The values below come from US10004701B2, “Methods and compositions for treating infection” (UNIVERSITY OF ROCHESTER, priority 2012, dated 2018).

Structures can show the parent of a compound that is named as a salt. Where two headings read alike, the source gives them in different places.

Assay in all cases: AK assay 384-well format, Prestwick library screening
One experiment concerns E. cloacae. The experiment is classed as cell-based, Enterobacter cloacae. The following applies: for fold induction at 50 µM: Enterobacter cloacae, 3 h.
In a further experiment the test system is E. faecium. Type of experiment: cell-based, Enterococcus faecium. The following applies: for fold induction at 50 µM: Enterococcus faecium, 3 h.
A further experiment concerns E. coli. Type of experiment: cell-based, Escherichia coli. Conditions: for fold induction at 50 µM: Escherichia coli, 3 h.
Another experiment deals with K. pneumoniae. The experiment is classed as cell-based, Klebsiella pneumoniae. Conditions: for fold induction at 50 µM: Klebsiella pneumoniae, 3 h.
Experiment [1] concerns A. baumannii strain 98-37-09. The experiment is classed as cell-based, Acinetobacter baumannii. Conditions: for fold induction at 50 µM: Acinetobacter baumannii, 983709, 3 h.
Experiment [2] deals with S. aureus strain USA300-0114. Type of experiment: cell-based, Staphylococcus aureus. Conditions: for fold induction at 50 µM: Staphylococcus aureus, USA300, 3 h.
In the next experiment the test system is P. aeruginosa. Type of experiment: cell-based, Pseudomonas aeruginosa. The following applies: for fold induction at 50 µM: Pseudomonas aeruginosa, 3 h.
Where [3] appears, read: planktonic E. cloacae, 50 μM final drug concentration, 384-well, cutoff for positive-scoring molecules 3-fold increase, read-out: AK-based Prestwick Library Screening Results: E. cloacae (increase in extracellular AK activity).
The mark [4] stands for this setting: planktonic E. faecium, 50 μM final drug concentration, 384-well, cutoff for positive-scoring molecules 3-fold increase, read-out: AK-based Prestwick Library Screening Results: E. faecium (increase in extracellular AK activity).
Where [5] appears, read: planktonic E. coli, 50 μM final drug concentration, 384-well, cutoff for positive-scoring molecules 3-fold increase, read-out: AK-based Prestwick Library Screening Results: E. coli (increase in extracellular AK activity).
[6] abbreviates: planktonic K. pneumoniae, 50 μM final drug concentration, 384-well, cutoff for positive-scoring molecules 3-fold increase, read-out: AK-based Prestwick Library Screening Results: K. pneumoniae (increase in extracellular AK activity).
[7] abbreviates: planktonic A. baumannii, 50 μM final drug concentration, 384-well, cutoff for positive-scoring molecules 3-fold increase, read-out: AK-based Prestwick Library Screening Results: A. baumannii (increase in extracellular AK activity).
[8] abbreviates: planktonic S. aureus, 50 μM final drug concentration, 384-well, cutoff for positive-scoring molecules 3-fold increase, read-out: AK-based Prestwick Library Screening Results: S. aureus (increase in extracellular AK activity).
Where [9] appears, read: planktonic P. aeruginosa, 50 μM final drug concentration, 384-well, cutoff for positive-scoring molecules 3-fold increase, read-out: AK-based Prestwick Library Screening Results: P. aeruginosa (increase in extracellular AK activity).
Where [10] appears, read: 50 μM final drug concentration, planktonic, cutoff for positive-scoring molecules 3-fold increase.

Regarding `Clc1ccc(Cn2c(CN3CCCC3)nc3ccccc32)cc1` [Clemizole hydrochloride], the fold induction at 50 µM with E. cloacae (setting [3]) stood at 1.4; in the experiment on E. faecium (setting [4]), 1.2; with E. coli (setting [5]), 1.2; in the experiment on K. pneumoniae (setting [6]), 1; in experiment [1] (setting [7]), 1.6; in experiment [2] (setting [8]) it was 1.6. Besides, in the experiment on P. aeruginosa (setting [9]), the fold induction at 50 µM turned out to be 1.2.
As for `CC[N+](CC)(CC(=O)Nc1c(C)cccc1C)Cc1ccccc1` [Denatonium benzoate], the fold induction at 50 µM was 0.4 in the experiment on E. cloacae (50 μM final drug concentration, cutoff for positive-scoring molecules 3-fold increase, read-out: AK-based Prestwick Library Screening Results, E. cloacae (fold increase in extracellular AK activity)); 0.9 with E. faecium (50 μM final drug concentration, cutoff for positive-scoring molecules 3-fold increase, read-out: AK-based Prestwick Library Screening Results, E. faecium (fold increase in extracellular AK activity)); 0.5 in the experiment with E. coli (50 μM final drug concentration, cutoff for positive-scoring molecules 3-fold increase, read-out: AK-based Prestwick Library Screening Results, E. coli (fold increase in extracellular AK activity)); 0.4 in the experiment on K. pneumoniae (50 μM final drug concentration, cutoff for positive-scoring molecules 3-fold increase, read-out: AK-based Prestwick Library Screening Results, K. pneumoniae (fold increase in extracellular AK activity)); 0.3 in experiment [1] (50 μM final drug concentration, cutoff for positive-scoring molecules 3-fold increase, read-out: AK-based Prestwick Library Screening Results, A. baumannii (fold increase in extracellular AK activity)); 0.4 in experiment [2] (50 μM final drug concentration, cutoff for positive-scoring molecules 3-fold increase, read-out: AK-based Prestwick Library Screening Results, S. aureus (fold increase in extracellular AK activity)). Moreover, the fold induction at 50 µM in the experiment on P. aeruginosa (50 μM final drug concentration, cutoff for positive-scoring molecules 3-fold increase, read-out: AK-based Prestwick Library Screening Results, P. aeruginosa (fold increase in extracellular AK activity)) was found to be 0.4.
Regarding `CN1CCC(=C2c3ccccc3CC(=O)c3sccc32)CC1` [Ketotifen fumarate], the fold induction at 50 µM in the experiment on E. cloacae (50 μM final drug concentration, planktonic, cutoff for positive 3-fold increase, read-out: AK-based Prestwick Library Screening Results, E. cloacae (fold increase in extracellular AK activity)) was found to be 1.7; in the experiment on E. faecium (50 μM final drug concentration, planktonic, cutoff for positive 3-fold increase, read-out: AK-based Prestwick Library Screening Results, E. faecium (fold increase in extracellular AK activity)), 1; with E. coli (50 μM final drug concentration, planktonic, cutoff for positive 3-fold increase, read-out: AK-based Prestwick Library Screening Results, E. coli (fold increase in extracellular AK activity)) it was 1.3; in the experiment on K. pneumoniae (50 μM final drug concentration, planktonic, cutoff for positive 3-fold increase, read-out: AK-based Prestwick Library Screening Results, K. pneumoniae (fold increase in extracellular AK activity)), 0.9; in experiment [1] (50 μM final drug concentration, planktonic, cutoff for positive 3-fold increase, read-out: AK-based Prestwick Library Screening Results, A. baumannii (fold increase in extracellular AK activity)) it was 1.1; in experiment [2] (50 μM final drug concentration, planktonic, cutoff for positive 3-fold increase, read-out: AK-based Prestwick Library Screening Results, S. aureus (fold increase in extracellular AK activity)) it was 1.1. Also, in the experiment with P. aeruginosa (50 μM final drug concentration, planktonic, cutoff for positive 3-fold increase, read-out: AK-based Prestwick Library Screening Results, P. aeruginosa (fold increase in extracellular AK activity)), the fold induction at 50 µM stood at 1.1.
Regarding `C[N+]1(C)[C@@H]2CC[C@H]1C[C@@H](OC(=O)C(CO)c1ccccc1)C2` (stereo partly drawn) [Methylatropine nitrate], the fold induction at 50 µM in the experiment on E. cloacae (50 μM final drug concentration, planktonic, cutoff for positive-scoring molecules 3-fold increase, read-out: AK-based Prestwick Library Screening Results, E. cloacae (fold increase in extracellular AK activity)) came out at 0.8; in the experiment on E. faecium (50 μM final drug concentration, planktonic, cutoff for positive-scoring molecules 3-fold increase, read-out: AK-based Prestwick Library Screening Results, E. faecium (fold increase in extracellular AK activity)), 1; in the experiment on E. coli (50 μM final drug concentration, planktonic, cutoff for positive-scoring molecules 3-fold increase, read-out: AK-based Prestwick Library Screening Results, E. coli (fold increase in extracellular AK activity)), 0.7; in the experiment with K. pneumoniae (50 μM final drug concentration, planktonic, cutoff for positive-scoring molecules 3-fold increase, read-out: AK-based Prestwick Library Screening Results, K. pneumoniae (fold increase in extracellular AK activity)), 0.6; in experiment [1] (50 μM final drug concentration, planktonic, cutoff for positive-scoring molecules 3-fold increase, read-out: AK-based Prestwick Library Screening Results, A. baumannii (fold increase in extracellular AK activity)), 0.7; in experiment [2] (50 μM final drug concentration, planktonic, cutoff for positive-scoring molecules 3-fold increase, read-out: AK-based Prestwick Library Screening Results, S. aureus (fold increase in extracellular AK activity)) it was 0.6. In addition, in the experiment on P. aeruginosa (50 μM final drug concentration, planktonic, cutoff for positive-scoring molecules 3-fold increase, read-out: AK-based Prestwick Library Screening Results, P. aeruginosa (fold increase in extracellular AK activity)), the fold induction at 50 µM was 0.7.
With `CO/N=C(\C(=O)N[C@@H]1C(=O)N2C(C(=O)O)=C(COC(C)=O)CS[C@H]12)c1csc(N)n1` [Cefotaxime sodium salt], the fold induction at 50 µM in the experiment with E. cloacae (setting [3]) was determined as 22; with E. faecium (setting [4]) it was 1; in the experiment on E. coli (setting [5]) it was 21.9; in the experiment with K. pneumoniae (setting [6]), 5.5; in experiment [1] (setting [7]) it was 2.2; in experiment [2] (setting [8]) it was 2.9. Further, in the experiment with P. aeruginosa (setting [9]), the fold induction at 50 µM was determined as 10.
For the compound `COc1ccc(Cc2nccc3cc(OC)c(OC)cc23)cc1OC` [Papaverine hydrochloride], the fold induction at 50 µM in the experiment on E. cloacae (planktonic E. cloacae, 50 μM final drug concentration, cutoff for positive-scoring molecules 3-fold increase, read-out: AK-based Prestwick Library Screening Results, E. cloacae (increase in extracellular AK activity)) was 0.9; in the experiment with E. faecium (planktonic E. faecium, 50 μM final drug concentration, cutoff for positive-scoring molecules 3-fold increase, read-out: AK-based Prestwick Library Screening Results, E. faecium (increase in extracellular AK activity)) it was 1; with E. coli (planktonic E. coli, 50 μM final drug concentration, cutoff for positive-scoring molecules 3-fold increase, read-out: AK-based Prestwick Library Screening Results, E. coli (increase in extracellular AK activity)), 0.9; with K. pneumoniae (planktonic K. pneumoniae, 50 μM final drug concentration, cutoff for positive-scoring molecules 3-fold increase, read-out: AK-based Prestwick Library Screening Results, K. pneumoniae (increase in extracellular AK activity)) it was 0.8; in experiment [1] (planktonic A. baumannii, 50 μM final drug concentration, cutoff for positive-scoring molecules 3-fold increase, read-out: AK-based Prestwick Library Screening Results, A. baumannii (increase in extracellular AK activity)), 0.8; in experiment [2] (planktonic S. aureus, 50 μM final drug concentration, cutoff for positive-scoring molecules 3-fold increase, read-out: AK-based Prestwick Library Screening Results, S. aureus (increase in extracellular AK activity)) it was 0.6. Also, the fold induction at 50 µM with P. aeruginosa (planktonic P. aeruginosa, 50 μM final drug concentration, cutoff for positive-scoring molecules 3-fold increase, read-out: AK-based Prestwick Library Screening Results, P. aeruginosa (increase in extracellular AK activity)) came out at 1.
Take `CN(C)CCCOc1nn(Cc2ccccc2)c2ccccc12` [Benzydamine hydrochloride]: the fold induction at 50 µM in the experiment with E. cloacae (setting [3]) was 1.2; with E. faecium (setting [4]) it was 1.1; in the experiment on E. coli (setting [5]), 1.3; in the experiment with K. pneumoniae (setting [6]), 1; in experiment [1] (setting [7]), 1; in experiment [2] (setting [8]), 1.1. Besides, the fold induction at 50 µM in the experiment with P. aeruginosa (setting [9]) was 1.2.
On to `C[C@]12CC[C@@H](O)C[C@@H]1CC[C@@H]1[C@@H]2CC[C@]2(C)C(=O)CC[C@@H]12` [Androsterone], for which the fold induction at 50 µM was 0.7 with E. cloacae (read-out: AK-based Prestwick Library Screening Results, E. cloacae (increase in extracellular AK activity)); 1 in the experiment with E. faecium (read-out: AK-based Prestwick Library Screening Results, E. faecium (increase in extracellular AK activity)); 0.6 in the experiment with E. coli (read-out: AK-based Prestwick Library Screening Results, E. coli (increase in extracellular AK activity)); 0.5 in the experiment on K. pneumoniae (read-out: AK-based Prestwick Library Screening Results, K. pneumoniae (increase in extracellular AK activity)); 0.7 in experiment [1] (read-out: AK-based Prestwick Library Screening Results, A. baumannii (increase in extracellular AK activity)); 0.5 in experiment [2] (read-out: AK-based Prestwick Library Screening Results, S. aureus (increase in extracellular AK activity)). The fold induction at 50 µM in the experiment on P. aeruginosa (read-out: AK-based Prestwick Library Screening Results, P. aeruginosa (increase in extracellular AK activity)) amounted to 0.6.
On to `O.Oc1cc(O)c2c(c1)OC(c1ccc(O)c(O)c1)C(O)C2` (racemic) [Catechin-(+,−) hydrate], for which the “AK-based Prestwick Library Screening Results, E. cloacae (fold increase in extracellular AK activity)” value in the experiment with E. cloacae (setting [10]) turned out to be 1.0. Moreover, the “AK-based Prestwick Library Screening Results, E. faecium (fold increase in extracellular AK activity)” value in the experiment on E. faecium (setting [10]) is on record as 0.9. The “AK-based Prestwick Library Screening Results, E. coli (fold increase in extracellular AK activity)” value in the experiment on E. coli (setting [10]) was 0.7. In addition, the “AK-based Prestwick Library Screening Results, K. pneumoniae (fold increase in extracellular AK activity)” value with K. pneumoniae (setting [10]) came to 0.6. Also, the “AK-based Prestwick Library Screening Results, A. baumannii (fold increase in extracellular AK activity)” value in experiment [1] (setting [10]) turned out to be 0.7. The “AK-based Prestwick Library Screening Results, S. aureus (fold increase in extracellular AK activity)” value in experiment [2] (setting [10]) came out at 0.7. The “AK-based Prestwick Library Screening Results, P. aeruginosa (fold increase in extracellular AK activity)” value in the experiment with P. aeruginosa (setting [10]) came out at 0.6.
